Laboratory results published in patent publication US7671054B1, “Reverse-turn mimetics and method relating thereto” (Choongwae Pharma Corporation, priority 2001, dated 2010).
Values after ≈ are worked out from the molar mass of the structure shown. “Also recorded” adds a separate entry of the source.

What was measured:
survivin protein = experiment: Western blot analysis of survivin; assay type: cell-based
NCI H460 = experiment: Sulforhodamine B (SRB) assay; assay type: cell-based; conditions: Homo sapiens; NCI H460, Lung; 48 hours; read-out: GI50 (SRB in vitro cytotoxicity)
Experimental: (§1) Growth inhibitory effect of Compound A on the cells listed below was measured by the sulforhodamine B assay. SW480 cells in 100 μl media were plated in each well of 96-well plate and allowed to attach for 24 hours. Compound A was added to the wells to produce the desired final concentrations, and the plates were incubated at 37° C. for 48 hours. The cells were then fixed by gentle addition of 100 μl of cold (4° C.) 10% trichloroacetic acid to each well, followed by incubation at 4° C. for 1 hour. Plates were washed with deionized water five times and allowed to air dry. The cells were then stained by addition of 100 μl SRB solution (0.4% SRB(w/v) in 1% acetic acid (v/v)) to wells for 15 min. After staining, the plates were quickly washed five times with 1% acetic acid to remove any unbound dye, and allowed to air dry. Bound dye was solubilized with 10 mmol/L Tris base (pH 10.5) prior to reading the plates. The optical density (OD) was read on a plate reader at a wavelength of 515 nm with Molecular Device. Inhibition of growth was expressed as relative viability (% of control) and GI50 was calculated from concentration-response curves after log/probit transformation.

K562/ADR = experiment: Sulforhodamine B (SRB) assay; assay type: cell-based; conditions: Homo sapiens, Leukemia, 48 hours, read-out: GI50 (SRB in vitro cytotoxicity)
Experimental: as §1

A375 = experiment: Sulforhodamine B (SRB) assay; assay type: cell-based; conditions: Homo sapiens, A-375; A375, Melanoma; 48 hours; read-out: GI50 (SRB in vitro cytotoxicity)
Experimental: as §1

786-0 = experiment: Sulforhodamine B (SRB) assay; assay type: cell-based; conditions: Homo sapiens; 786-0, listed under Colon; 48 hours; read-out: GI50 (SRB in vitro cytotoxicity)
Experimental: as §1

RPMI8226 = experiment: Sulforhodamine B (SRB) assay; assay type: cell-based; conditions: Homo sapiens, RPMI-8226; RPMI8226, Leukemia; 48 hours; read-out: GI50 (SRB in vitro cytotoxicity)
Experimental: as §1

CRL1579 = experiment: Sulforhodamine B (SRB) assay; assay type: cell-based; conditions: CRL1579, Melanoma; 48 hours; read-out: GI50 (SRB in vitro cytotoxicity)
Experimental: as §1

COLO205 = experiment: Sulforhodamine B (SRB) assay; assay type: cell-based; conditions: Homo sapiens, COLO 205; COLO205, Colon; 48 hours; read-out: GI50 (SRB in vitro cytotoxicity)
Experimental: as §1

MCF7/ADR = experiment: Sulforhodamine B (SRB) assay; assay type: cell-based; conditions: Homo sapiens, NCI/ADR-RES, Breast, 48 hours, read-out: GI50 (SRB in vitro cytotoxicity)
Experimental: as §1

[1] = tested on: GAP-43 in PC-12 PS-1/L286V cells; experiment: GAP-43 immunofluorescence; assay type: cell-based, Rat; conditions: PS-1/L286V mutant PC-12 cells; 10 μM
Experimental: (§2) Immunofluorescence. Cells were plated at a density of 10,000 cells/cm^2 on sterile coated 22×22 mm coverslips in a 6-well culture plate. Differentiation was initiated, as previously described, for 10 days. The differentiated cells were then fixed in methanol for 15 minutes at −20° C. This is followed by a 15 minutes incubation with PBS+0.1% Triton X-100. The coverslips were incubated with antibodies raised against Ephrin B2 Receptor (Santa Cruz Biotechnology) and Gap-43 (Novus Biologicals) for 40 minutes at 37° C. After a series of washes with PBS-Triton X-100, secondary antibody conjugated to FITC (Jackson ImmunoResearch, Westgrove, Pa.) was applied. All slides images were acquired using a Nikon PCM2000 Laser Scanning Confocal Microscope mounted on a Nikon Eclipse E600 upright microscope (Nikon, Melville, N.Y.).

[2] = tested on: Ephrin B2 (EphB2) receptor in PC-12 PS-1/L286V cells; experiment: EphB2 receptor expression (immunofluorescence and RT-PCR); assay type: cell-based, Rat; conditions: PS-1/L286V mutant PC-12 cells; 10 μM
Experimental: as §2
RT-PCR. To analyze the mRNA levels for Ephrin B2 (EphB2) receptor, total RNA was isolated using Trizol (Invitrogen-GIBCO-BRL, Baltimore, Md.) from differentiated cells. 2 μg RNA was reverse transcribed in a total volume of 20 μl with random hexamer (50 ng), and using the Superscript II reverse transcription system (Invitrogen-GIBCO-BRL), according to manufacturer's guidelines. PCR was carried out in a 50 μl volume containing 5 μl cDNA, 100 pmol primers, 100 μM dNTPs, 1×Taq buffer and 1.5 mM MgCl2. […]

caspase 3 = experiment: Caspase 3 activity in cultured tumor cells; assay type: cell-based
[3] = tested on: survivin promoter in SW480 cells; experiment: Survivin luciferase reporter in SW480 cells; assay type: cell-based; conditions: SW480 cells; various concentrations
cultured tumor cells [4] = experiment: Cell death of cultured tumor cells; assay type: cell-based; conditions: 5.0 μM
cultured tumor cells [5] = experiment: FACS analysis, cells in G0; assay type: cell-based; conditions: 5 μM
[6] = tested on: PC-12 cells overexpressing mutant PS-1/L286V; experiment: Neuronal differentiation and quantitation of neurite outgrowth; assay type: cell-based, Rat; conditions: PS-1/L286V mutant PC-12 cells
Experimental: Cell Differentiation. Cell culture dishes were pre-coated overnight with 0.25 mg/ml collagen (Cohesion, Calif.), 10 μg/ml Poly-L-Lysine (Sigma-Aldrich, St. Louis, Mo.) and 12 μg/ml Polyethyleneimine (ICN, La Mesa, Calif.). Cells were cultured on coated dishes at 15,000 cells/cm^2, and differentiated into a neuron-like phenotype by incubation in medium with reduced serum (1% fetal bovine serum), containing 50 ng/ml nerve growth factor (NGF) (Sigma-Aldrich) for 10 days. NGF-containing medium was changed every 2-3 days.
Differentiated PC-12/L286V cells were treated with increasing concentrations of this compound for 4 hours. Transfection was then initiated after this treatment period.
Quantitation of Neurite Outgrowth. Cell counts were taken from six randomly chosen microscopic fields (10×). […] The number of cells with such outgrowths was then expressed as a percentage of the total number of cells. Values obtained were from duplicates of three independent experiments.

## O=c1[nH]cc(F)c(=O)[nH]1 [Compound 5-FU, 5-fluorouracil]
Survivin protein; 5 μM
  amount of survivin protein (Western blot): reduced the amount of the survivin protein
NCI H460
  GI50: 1.4 µg/mL (≈ 10.7 µM)
K562/ADR
  GI50: > 10 µg/mL
A375
  GI50: 1.46 µg/mL (≈ 11.3 µM)
786-0
  GI50: 0.584 µg/mL (≈ 4.49 µM)
RPMI8226
  GI50: > 10 µg/mL
CRL1579
  GI50: > 10 µg/mL
COLO205
  GI50: 1.13 µg/mL (≈ 8.69 µM)
MCF7/ADR
  GI50: > 10 µg/mL

## O=C1[C@H](Cc2ccc(O)cc2)N2C(=O)CCN(C(=O)NCc3ccccc3)[C@H]2CN1Cc1cccc2ccccc12 [Compound D]
[1]
  GAP-43 staining: significantly elevated
[2]
  EphB2 message (RT-PCR): increased EphB2 message; also recorded: upregulates EphB2 message
  EphB2 receptor expression (immunofluorescence): increased EphB2 receptor expression
Caspase 3; co-treatment of stausporine (0.5 μM) and Compound D
  caspase 3 activity, co-treatment: synergic stimuation of the caspase 3 activity
Caspase 3; cultured tumor cells, 2.5 μM or 5.0 μM
  caspase 3 activity: activates the caspase 3 activity
[3]
  survivin luciferase reporter activity: inhibit expression of survivin; also recorded: inhibit the activity of a survivin luciferase reporter
Cultured tumor cells [4]
  cell death: promotes cell death
Cultured tumor cells [5]
  number of cells in G0 (FACS): increases the number of cells in G0
Survivin protein; 10 μM
  amount of survivin protein (Western blot): reduced the amount of the survivin protein
Survivin protein; 25 μM
  amount of survivin protein (Western blot): reduced the amount of the survivin protein
[6]; 10 μM
  percentage of cells bearing neurites greater than twice the length of the cell body: substantially increased the percentage of cells bearing neurites; also recorded: significantly increased
[6]; 10 μM plus NGF, 10 days
  neurite outgrowth and differentiation: essentially normal neurite outgrowth and differentiation; also recorded: phenotypically corrects deficient neuronal differentiation
